Measured values: ChEMBL document CHEMBL3045199, “Synthesis of some (E)-6-[2-(furan-2-yl)ethenyl]-1,2,4-triazin-5-ones and their biological evaluation as antitumor agents” (2013)

Columns and labels:
Assay type in all cases: functional
T47D = test: Cytotoxicity against Homo sapiens (human) T47D cells after 48 hr by SRB assay; conditions: read-out: pGI50 (converted)
HOP-92 = test: Cytotoxicity against Homo sapiens (human) HOP92 cells after 48 hr by SRB assay; conditions: HOP-92, 48 h, read-out: pGI50 (converted)
HCT-116 = test: Cytotoxicity against Homo sapiens (human) HCT116 cells after 48 hr by SRB assay; conditions: HCT-116, 48 h, read-out: pGI50 (converted)
NCI-H522 = test: Cytotoxicity against Homo sapiens (human) NCI-H522 cells after 48 hr by SRB assay; conditions: NCI-H522, 48 h, read-out: pGI50 (converted)
IGROV-1 = test: Cytotoxicity against Homo sapiens (human) IGROV1 cells after 48 hr by SRB assay; conditions: IGROV-1, 48 h, read-out: pGI50 (converted)
MDA-MB-231 = test: Cytotoxicity against Homo sapiens (human) MDA-MB-231 cells after 48 hr by SRB assay; conditions: MDA-MB-231, 48 h, read-out: pGI50 (converted)
OVCAR-8 = test: Cytotoxicity against Homo sapiens (human) OVCAR8 cells after 48 hr by SRB assay; conditions: OVCAR-8, 48 h, read-out: pGI50 (converted)
SN12C = test: Cytotoxicity against Homo sapiens (human) SN12C cells after 48 hr by SRB assay; conditions: read-out: pGI50 (converted)
MCF7 = test: Cytotoxicity against Homo sapiens (human) MCF7 cells after 48 hr by SRB assay; conditions: MCF7, 48 h, read-out: pGI50 (converted)
Malme-3M = test: Cytotoxicity against Homo sapiens (human) MALME-3M cells after 48 hr by SRB assay; conditions: read-out: pGI50 (converted)
UACC-62 = test: Cytotoxicity against Homo sapiens (human) UACC62 cells after 48 hr by SRB assay; conditions: UACC-62, 48 h, read-out: pGI50 (converted)
SF-268 = test: Cytotoxicity against Homo sapiens (human) SF268 cells after 48 hr by SRB assay; conditions: SF-268, 48 h, read-out: pGI50 (converted)
HOP-62 = test: Cytotoxicity against Homo sapiens (human) HOP62 cells after 48 hr by SRB assay; conditions: HOP-62, 48 h, read-out: pGI50 (converted)
MOLT-4 = test: Cytotoxicity against Homo sapiens (human) MOLT4 cells after 48 hr by SRB assay; conditions: MOLT-4, 48 h, read-out: pGI50 (converted)
OVCAR-5 = test: Cytotoxicity against Homo sapiens (human) OVCAR5 cells after 48 hr by SRB assay; conditions: OVCAR-5, 48 h, read-out: pGI50 (converted)
786-0 = test: Cytotoxicity against Homo sapiens (human) 786-0 cells after 48 hr by SRB assay; conditions: 786-0, 48 h, read-out: pGI50 (converted)
NCI-H460 = test: Cytotoxicity against Homo sapiens (human) NCI-H460 cells after 48 hr by SRB assay; conditions: NCI-H460, 48 h, read-out: pGI50 (converted)
K562 = test: Cytotoxicity against Homo sapiens (human) K562 cells after 48 hr by SRB assay; conditions: K562, 48 h, read-out: pGI50 (converted)
UACC-257 = test: Cytotoxicity against Homo sapiens (human) UACC257 cells after 48 hr by SRB assay; conditions: UACC-257, 48 h, read-out: pGI50 (converted)
A549 = test: Cytotoxicity against Homo sapiens (human) A549 cells after 48 hr by SRB assay; conditions: A549, 48 h, read-out: pGI50 (converted)
OVCAR-3 = test: Cytotoxicity against Homo sapiens (human) OVCAR3 cells after 48 hr by SRB assay; conditions: OVCAR-3, 48 h, read-out: pGI50 (converted)
SK-OV-3 = test: Cytotoxicity against Homo sapiens (human) SKOV3 cells after 48 hr by SRB assay; conditions: SK-OV-3, 48 h, read-out: pGI50 (converted)
NCI-H23 = test: Cytotoxicity against Homo sapiens (human) NCI-H23 cells after 48 hr by SRB assay; conditions: NCI-H23, 48 h, read-out: pGI50 (converted)
SF-539 = test: Cytotoxicity against Homo sapiens (human) SF539 cells after 48 hr by SRB assay; conditions: SF-539, 48 h, read-out: pGI50 (converted)
PC-3 = test: Cytotoxicity against Homo sapiens (human) PC3 cells after 48 hr by SRB assay; conditions: PC-3, 48 h, read-out: pGI50 (converted)
NCI-H226 = test: Cytotoxicity against Homo sapiens (human) NCI-H226 cells after 48 hr by SRB assay; conditions: NCI-H226, 48 h, read-out: pGI50 (converted)
A498 = test: Cytotoxicity against Homo sapiens (human) A498 cells after 48 hr by SRB assay; conditions: A498, 48 h, read-out: pGI50 (converted)
HL-60(TB) = test: Cytotoxicity against Homo sapiens (human) HL-60(TB) cells after 48 hr by SRB assay; conditions: HL-60, 48 h, read-out: pGI50 (converted)
RXF 393 = test: Cytotoxicity against Homo sapiens (human) RXF393 cells after 48 hr by SRB assay; conditions: RXF 393, 48 h, read-out: pGI50 (converted)
HCT-15 = test: Cytotoxicity against Homo sapiens (human) HCT15 cells after 48 hr by SRB assay; conditions: HCT-15, 48 h, read-out: pGI50 (converted)
M14 = test: Cytotoxicity against Homo sapiens (human) M14 cells after 48 hr by SRB assay; conditions: M14, 48 h, read-out: pGI50 (converted)
SK-MEL-2 = test: Cytotoxicity against Homo sapiens (human) SK-MEL-2 cells after 48 hr by SRB assay; conditions: SK-MEL-2, 48 h, read-out: pGI50 (converted)
TK-10 = test: Cytotoxicity against Homo sapiens (human) TK10 cells after 48 hr by SRB assay; conditions: TK-10, 48 h, read-out: pGI50 (converted)
OVCAR-4 = test: Cytotoxicity against Homo sapiens (human) OVCAR4 cells after 48 hr by SRB assay; conditions: OVCAR-4, 48 h, read-out: pGI50 (converted)

## O=c1[nH]cc(F)c(=O)[nH]1 [FLUOROURACIL]
T47D
  GI50: 79.4 µM
HOP-92
  GI50: 158 µM
HCT-116
  GI50: 3.98 µM
NCI-H522
  GI50: 39.8 µM
IGROV-1
  GI50: 12.6 µM
MDA-MB-231
  GI50: 501 µM
OVCAR-8
  GI50: 20 µM
SN12C
  GI50: 25.1 µM
MCF7
  GI50: 1.58 µM
Malme-3M
  GI50: 20 µM
UACC-62
  GI50: 12.6 µM
SF-268
  GI50: 50.1 µM
HOP-62
  GI50: 20 µM
MOLT-4
  GI50: 12.6 µM
OVCAR-5
  GI50: 158 µM
786-0
  GI50: 12.6 µM
NCI-H460
  GI50: 1 µM
K562
  GI50: 20 µM
UACC-257
  GI50: 100 µM
A549
  GI50: 2 µM
OVCAR-3
  GI50: 25.1 µM
SK-OV-3
  GI50: 158 µM
NCI-H23
  GI50: 12.6 µM
SF-539
  GI50: 1.26 µM
PC-3
  GI50: 50.1 µM
NCI-H226
  GI50: 251 µM
A498
  GI50: 10 µM
HL-60(TB)
  GI50: 20 µM
RXF 393
  GI50: 50.1 µM
HCT-15
  GI50: 6.31 µM
M14
  GI50: 50.1 µM
SK-MEL-2
  GI50: 398 µM
TK-10
  GI50: 126 µM
OVCAR-4
  GI50: 63.1 µM
